Assay results reported in article PMC5522267, “Targeting PEPT1: a novel strategy to improve the antitumor efficacy of doxorubicin in human hepatocellular carcinoma therapy” (Oncotarget, 2017).
Where a name gives a salt, the structure may show the parent alone.

Key:
PEPT1 = biological target: T1, PEPT1 (Homo sapiens, UniProt P46059); assay: Uptake, dynamic and competitive inhibition test; format: cell-based; settings: inhibitors 0.01 mg/ml preincubated 30 mins, then drug 1 h
T1 construct: endogenous in cells; host or cells: Bel-7402, HepG2 (human HCC cells); Caco-2
T1 sequence (P46059 1-708): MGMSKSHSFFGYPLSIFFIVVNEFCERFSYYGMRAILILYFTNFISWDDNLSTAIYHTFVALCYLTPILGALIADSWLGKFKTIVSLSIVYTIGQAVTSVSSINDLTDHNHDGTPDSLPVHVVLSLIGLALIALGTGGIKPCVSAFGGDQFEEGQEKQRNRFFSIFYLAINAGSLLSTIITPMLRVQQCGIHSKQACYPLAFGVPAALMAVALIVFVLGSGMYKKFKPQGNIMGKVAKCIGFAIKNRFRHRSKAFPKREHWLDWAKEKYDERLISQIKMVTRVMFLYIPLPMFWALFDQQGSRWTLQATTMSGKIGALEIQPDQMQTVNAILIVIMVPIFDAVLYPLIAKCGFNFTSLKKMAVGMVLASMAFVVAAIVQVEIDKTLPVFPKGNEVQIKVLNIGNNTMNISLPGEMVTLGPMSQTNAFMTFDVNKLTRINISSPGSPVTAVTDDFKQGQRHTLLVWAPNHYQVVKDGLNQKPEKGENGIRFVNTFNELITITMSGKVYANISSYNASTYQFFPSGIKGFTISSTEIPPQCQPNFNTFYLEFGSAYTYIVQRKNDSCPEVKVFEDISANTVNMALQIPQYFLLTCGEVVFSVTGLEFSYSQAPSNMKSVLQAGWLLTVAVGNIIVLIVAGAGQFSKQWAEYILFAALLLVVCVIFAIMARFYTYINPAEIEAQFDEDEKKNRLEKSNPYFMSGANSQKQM
Protocol: The transport of Doxorubicin-tripeptide conjugate by PEPT1 was evaluated by time course, dynamic and competitive inhibition tests. The uptake study was performed on the confluent cell monolayer as described previously.
The uptake buffer was HBSS buffer (0.952 mM CaCl2, 5.36 mM KCl, 0.441 mM KH2PO4, 0.812 mM MgSO4, 136.7 mM NaCl, 0.385 mM Na2HPO4, 25 mM D-glucose, and 10 mM HEPES) adjusted to pH 6.0. […] Then four different initial concentrations (0.025 mg/ml, 0.05 mg/ml, 0.10 mg/ml, 0.15 mg/ml) of Doxorubicin-tripeptide conjugate were incubated with HCC cell monolayer at pH 6.0 for 120 min. At last, 0.05 mg/ml Doxorubicin-tripeptide conjugate was fed to HCC cells at different pH uptake buffer (5.4, 6, 7.4 and 8.4) for 120 min. Inhibition tests were conducted by preincubating the cells with competitive compounds Gly-Sar, Gly-Gln, Gly-Gly-Gly (0.01 mg/ml) respectively for 30 mins and then incubated with Doxorubicin-tripeptide conjugate (0.05 mg/ml) for 1 h. After removing the buffer and rapidly washing 3 times with ice-cold PBS, the cellular uptake was specifically examined with a Multi-Mode Reader (BioTek, Synergy 2, USA) with Excitation 485/20 and Emission 590/35.

[1] = HCC mice, both dose groups
Protocol: After the HCC mice model was established, the nude mice were randomly assigned to three groups: Group A (control group: administration with normal saline 0.2 ml every time), group B (administration with Doxorubicin-tripeptide conjugate) and group C (administration with Doxorubicin). […] Treatment was conducted every 3 weeks for 5 weeks. Pay close attention to the general condition of the mice and their subcutaneous tumor and draw survivorship curve. The mice were weighed every 3 days and tumor volume was measured with a digital caliper using the formula: volume = (1/6).π. length × width × height. At the end of the experiment, tumor weight and volume was measured to obtained the tumor inhibitory rate and actual volume, which were calculated by the follow formula respectively: tumor inhibitory rate = (The average tumor weight of control group-experimental group)/control group × 100 %. volume = (1/6).π. length × width × height.
After the course of administration, mice were sacrificed, then the blood was collected to detect relevant indexes including quantitative serum protein, blood routine, myocardial enzymes (CK, CK-MB, LDH, AST), GSH-PX, MDA and SOD, the bone marrow taken to make bone marrow smear. What's more, the tumor, liver, jejunum and heart tissue of mice were dissected firstly for Small Animal Imaging (KODAK IS in-vivo FX, Kodak), and secondly were placed in the 10% Formaldehyde solution to prepare paraffin section, HE staining for histological examination. […] The tests of CK, CK-MB, LDH, AST, GSH-PX, MDA and SOD were completed in accordance with instructions strictly (Jiancheng Bioengineering Institute, Nanjing, China).

COc1cccc2c1C(=O)c1c(O)c3c(c(O)c1C2=O)C[C@@](O)(C(=O)CO)C[C@@H]3O[C@H]1C[C@H](N)[C@H](O)[C@H](C)O1 [Doxorubicin, Doxorubicin hydrochloride]
uptake in presence of inhibitors Gly-Sar, Gly-Gln or Gly-Gly-Gly (PEPT1): not
change of mice weight during treatment [1]: the most significant
